From ChEMBL document CHEMBL1201862, “PubChem BioAssay data set” (2004) come the findings set out here.

Molecules are shown by their SMILES. “And” between values parts separate entries of the source, which are not always exact repeats. Equal values may be shown once. The source made the active and inactive calls. Rule as the data show it, for most assays here: actives have a measured EC50 and inactives only a lower limit.

Assay [1] relates to Streptococcus sp. 'group A'. Kind of assay: growth inhibition of control SK(-) GAS strain, dose response, counter-screen for streptokinase expression inhibitor project, luminescence, kanamycin, BacTiterGlo, confirmation (AID 1900). Format: functional, organism-based.
For assay [2], the system named is Streptococcus. Kind of assay: Group A Streptococcus viability loss, dose response, counter-screen for streptokinase expression inhibitor project, luminescence, BacTiterGlo (AID 1915).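 Also: potency for reduction of bacterial viability or growth.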 Format: functional, organism-based.
Assay [3] has as its target T1, Streptokinase A (Streptococcus pyogenes serotype M1, UniProt P10520).
T1 sequence (P10520 whole entry): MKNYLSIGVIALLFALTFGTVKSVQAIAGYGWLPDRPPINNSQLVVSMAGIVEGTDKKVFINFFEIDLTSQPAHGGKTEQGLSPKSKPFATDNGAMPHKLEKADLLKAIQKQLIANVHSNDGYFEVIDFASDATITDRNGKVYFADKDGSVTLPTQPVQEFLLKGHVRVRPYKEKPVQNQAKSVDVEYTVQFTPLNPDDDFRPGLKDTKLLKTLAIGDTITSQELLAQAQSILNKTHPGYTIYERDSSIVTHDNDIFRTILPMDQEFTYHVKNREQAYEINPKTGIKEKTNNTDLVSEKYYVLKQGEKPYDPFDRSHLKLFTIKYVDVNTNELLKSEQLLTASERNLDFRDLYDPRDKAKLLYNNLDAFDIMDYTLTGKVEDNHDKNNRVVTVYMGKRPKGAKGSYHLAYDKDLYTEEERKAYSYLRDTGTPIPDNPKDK
Kind of assay: S. pyogenes streptokinase expression inhibitors, potency, dose response, plasminogen activation absorbance, OD405 (AID 1914).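 Also: secreted streptokinase activity via plasminogen activation per viability signal from cell pellet.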 It counts as functional, Streptococcus pyogenes M1 GAS.

For assay [4], the target named is T2, RNA-binding protein pos-1 (Caenorhabditis elegans, UniProt G5EF15).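 Also: purified POS-1 fused to maltose binding protein made in E. coli; potency of compounds blocking POS-1 binding to fluorescent RNA.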
T2 sequence (G5EF15 whole entry): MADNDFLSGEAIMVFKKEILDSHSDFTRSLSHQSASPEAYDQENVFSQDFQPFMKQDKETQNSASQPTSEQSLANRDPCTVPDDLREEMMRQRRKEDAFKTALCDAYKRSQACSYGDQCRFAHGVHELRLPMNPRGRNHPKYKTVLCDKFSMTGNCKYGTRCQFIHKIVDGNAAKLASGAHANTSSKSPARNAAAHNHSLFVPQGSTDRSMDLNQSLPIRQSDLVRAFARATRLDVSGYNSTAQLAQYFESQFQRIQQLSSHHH
Nature of the assay: inhibitors of POS-1/mex-3 RNA binding, dose response, biochemical, fluorescence polarization (AID 1964). (Polarisation of emitted light reports the rotation of a fluorescent probe.)

Assay [5] deals with T3, Zinc finger protein mex-5 (Caenorhabditis elegans, UniProt Q9XUB2).
T3 sequence (Q9XUB2 whole entry): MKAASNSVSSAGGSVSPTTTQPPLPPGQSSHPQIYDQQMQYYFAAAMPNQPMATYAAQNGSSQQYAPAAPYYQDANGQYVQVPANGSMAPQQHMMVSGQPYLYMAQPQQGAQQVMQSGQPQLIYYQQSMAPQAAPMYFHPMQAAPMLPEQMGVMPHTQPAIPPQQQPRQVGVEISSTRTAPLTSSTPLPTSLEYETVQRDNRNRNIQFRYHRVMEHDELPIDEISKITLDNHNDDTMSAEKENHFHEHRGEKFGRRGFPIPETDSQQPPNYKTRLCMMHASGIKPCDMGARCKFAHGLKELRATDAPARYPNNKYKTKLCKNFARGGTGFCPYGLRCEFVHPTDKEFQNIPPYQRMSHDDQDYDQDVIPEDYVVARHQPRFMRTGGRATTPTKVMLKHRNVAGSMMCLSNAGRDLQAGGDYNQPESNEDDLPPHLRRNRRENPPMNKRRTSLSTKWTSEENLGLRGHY
Nature of the assay: MEX-5/TCR-2 RNA interaction inhibitors, dose response, biochemical, C. elegans, fluorescence polarization (AID 1960).

The target of assay [6] is T4, Cytochrome P450 1A2 (Homo sapiens, UniProt P05177).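 Also: PubChem cytochrome P450 panel assay, CYP1A2 panel member.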
T4 sequence (P05177 whole entry): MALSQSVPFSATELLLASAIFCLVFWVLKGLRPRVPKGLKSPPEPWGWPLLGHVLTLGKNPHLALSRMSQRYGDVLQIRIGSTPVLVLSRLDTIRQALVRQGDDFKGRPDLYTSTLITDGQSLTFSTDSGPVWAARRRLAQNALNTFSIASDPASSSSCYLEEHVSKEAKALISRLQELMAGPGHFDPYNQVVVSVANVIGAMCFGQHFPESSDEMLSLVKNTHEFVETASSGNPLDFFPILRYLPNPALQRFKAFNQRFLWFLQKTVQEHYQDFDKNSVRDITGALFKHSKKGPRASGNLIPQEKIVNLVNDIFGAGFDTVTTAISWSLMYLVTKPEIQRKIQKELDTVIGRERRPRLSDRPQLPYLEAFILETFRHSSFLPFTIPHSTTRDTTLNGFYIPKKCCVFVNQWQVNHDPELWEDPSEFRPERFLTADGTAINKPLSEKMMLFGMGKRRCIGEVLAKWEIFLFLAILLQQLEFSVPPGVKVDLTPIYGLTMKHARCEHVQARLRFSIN

The target of assay [7] is Cytochrome P450 2D6 (Homo sapiens, UniProt P10635).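 Also: CYP2D6 member of a cytochrome P450 panel assay.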
Cytochrome P450 2D6, sequence (P10635 whole entry): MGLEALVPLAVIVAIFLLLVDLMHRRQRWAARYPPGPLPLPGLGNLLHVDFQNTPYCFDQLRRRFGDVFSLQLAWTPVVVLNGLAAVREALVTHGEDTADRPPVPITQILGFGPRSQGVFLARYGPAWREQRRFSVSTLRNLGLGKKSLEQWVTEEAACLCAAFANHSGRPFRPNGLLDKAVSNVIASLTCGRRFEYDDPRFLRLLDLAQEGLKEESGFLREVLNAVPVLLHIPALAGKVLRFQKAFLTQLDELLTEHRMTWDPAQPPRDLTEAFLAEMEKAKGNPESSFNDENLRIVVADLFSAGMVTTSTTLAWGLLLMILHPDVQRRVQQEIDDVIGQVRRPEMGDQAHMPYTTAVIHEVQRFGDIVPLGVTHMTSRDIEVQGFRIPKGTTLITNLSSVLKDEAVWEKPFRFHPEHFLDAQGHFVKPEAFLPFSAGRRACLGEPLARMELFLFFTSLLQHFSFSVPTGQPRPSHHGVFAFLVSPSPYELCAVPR
The target in assay [8] is Cytochrome P450 2C9 (Homo sapiens, UniProt P11712).
Cytochrome P450 2C9, sequence (P11712 whole entry): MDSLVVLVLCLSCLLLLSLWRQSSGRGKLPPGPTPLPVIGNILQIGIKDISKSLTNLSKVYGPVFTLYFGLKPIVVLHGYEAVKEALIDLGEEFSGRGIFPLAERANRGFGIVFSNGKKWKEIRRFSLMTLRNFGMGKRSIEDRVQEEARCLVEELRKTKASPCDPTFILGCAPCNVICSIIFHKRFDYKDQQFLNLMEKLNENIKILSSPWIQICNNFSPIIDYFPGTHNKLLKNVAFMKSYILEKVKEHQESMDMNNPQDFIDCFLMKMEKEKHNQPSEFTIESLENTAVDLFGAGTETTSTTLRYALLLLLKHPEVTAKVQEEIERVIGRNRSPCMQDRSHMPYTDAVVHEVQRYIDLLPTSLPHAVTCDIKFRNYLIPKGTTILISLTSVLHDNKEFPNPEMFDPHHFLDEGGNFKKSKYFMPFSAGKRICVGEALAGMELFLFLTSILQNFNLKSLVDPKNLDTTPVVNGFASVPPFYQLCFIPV
Assay [9] concerns INS1. Kind of assay: beta cell apoptosis inhibitors, cytokine rescue, dose response, luminescence, retest (AID 449756).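 Also: cell death triggered by IL-1 beta plus TNF-alpha plus IFN-gamma mixture; protective hits raise ATP signal compared with cytokine alone wells.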 Format: functional, cell-based. The settings on record: Rattus norvegicus.
Assay [10] is described as follows: cytotoxicity toward NIH3T3 fibroblasts, dose response, counter-screen, cell-based, ATP luminescence, mouse fibroblasts (AID 2010).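 Also: cells exposed to compound for about 90 hours before reading.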 It counts as functional. On the technique in general: The purpose of a counterscreen is to sort out artefacts and off-target activity.
A short description of assay [11]: inhibitors of intracellular T. cruzi replication, confirmation, NIH3T3 host cells, beta-gal luminescence (AID 2044).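 Also: intracellular parasites grown in NIH/3T3 mouse fibroblasts as host cells; luminescent beta-galactosidase reporter signal from transgenic T. cruzi replicating inside host cells; inhibitors lower the luminescence signal.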 It counts as functional, cell-based.
Assay [12] in a line: Luminescence Cell-Based Dose Retest to Confirm Inhibitors of Cancer Stem Cells. [Related pubchem assays (depositor defined):AID2717, AID2721]. Format: functional. Particulars: Homo sapiens.
Assay [13] is described as follows: HEp-2 cell cytotoxicity, dose response, cytotoxicity control for RSV inhibitor project, HTS (AID 2410). Particulars: human respiratory syncytial virus. It counts as functional.

One may read the EC50 as the concentration at which the effect is half-maximal. Take `Cc1cc(C)nc(NC(=N)NCCc2c[nH]c3ccccc23)n1`: the EC50 in assay [1] was 7.95 µM (active); in assay [2], > 150 µM (not active); in [3], > 150 µM (not active). On to `CNc1nc(OC)nc(N(C#N)CN2C(=O)c3ccccc3S2(=O)=O)n1`, for which the EC50 in [1], in [2] and in assay [3] was > 150 µM (not active) each time.

For the compound `O=C(O)c1cc(Cl)c2c(c1)[C@@H]1C=CC[C@@H]1[C@H](c1ccc(S(=O)(=O)N3CCOCC3)cc1)N2`, the half-maximal effective concentration (EC50) in assay [4] was > 300 µM (not active); in [5], 29.7 µM (active).

For orientation: AC50 means the concentration at which the activity in the assay is half-maximal. Take `N#CCCn1c(=O)c(-c2ccccc2)nc2cnc(Nc3ccccc3)nc21`: in [6], the half-maximal activity concentration (AC50) is 0.794 µM (inconclusive). In the case of `CC[C@H](C)C(=O)O[C@H]1CCC=C2C=C[C@H](C)[C@H](CC[C@@H]3C[C@H](O)CC(=O)O3)[C@H]21`, the AC50 in [6] and in assay [7] was 31.6 µM (inconclusive) each time. With `O=C(Cc1ccccc1)NNC(=O)c1cnccn1`, the concentration for a half-maximal effect (EC50) in assay [4] was > 300 µM (not active); in assay [5], 41.4 µM (active).

For the compound `O=C(O)c1ccccc1NCn1c(=S)sc2ccccc21`, the AC50 in assay [6] is 0.501 µM (inconclusive). Take `COc1ccccc1-c1cc(Nc2ccc(F)cc2)ncn1`: the AC50 in assay [7] was 39.8 µM (inconclusive).

Consider `CN1[C@@H]2CC[C@H]1CC(OC(=O)c1cc(Cl)cc(Cl)c1)C2` (some centres not stated), for which the concentration at half-maximal activity (AC50) in assay [6] is 31.6 µM (inconclusive).

As for `O=C(Nc1ccccc1-c1nc2ccccc2[nH]1)c1ccc(S(=O)(=O)N2CCCCC2)cc1`, the AC50 in [6] was 3.55 µM (inconclusive). Take `C/C(=N/Nc1ccc2ccccc2n1)c1ccccc1O`: the concentration at half-maximal activity (AC50) in [8] is 2.51 µM (inconclusive). For the compound `O=C(NCCc1ccccn1)c1ccc(OC2CCN(Cc3ccccn3)CC2)cc1`, the EC50 in assay [1], in assay [2] and in assay [3] was > 150 µM (not active) throughout. With `Cc1cc(NCc2ccccn2)ccc1Br`, the AC50 in assay [8] was 7.08 µM (inconclusive). On to `CC1CCN(c2ccc(NC(=O)c3ccc([N+](=O)[O-])o3)cc2)CC1`, for which the AC50 in assay [9] is 10.3 µM (active). Further, the EC50 in [10] is 4.41 µM (active); in [11], > 16 µM (not active). On to `N#Cc1ccccc1-c1ccc2ncnc(NCCN3CCOCC3)c2c1`, for which the AC50 in assay [7] was 39.8 µM (inconclusive). As for `Cc1ccccc1CSCCN=C(S)Nc1ccccc1`, the concentration giving a half-maximal response (EC50) in assay [4] and in assay [5] was > 300 µM (not active) each time. Regarding `CCN1C=CC2=C(C#N)C(N)C(C#N)(C#N)C(c3ccccc3C(F)(F)F)C2C1` (configuration not stated), the concentration giving a half-maximal response (EC50) was 260 µM (inconclusive) in [4] and > 300 µM (not active) in [5].

With `CN(C)CCCNS(=O)(=O)c1ccc(NC2CCCCCC2)c([N+](=O)[O-])c1`, the AC50 in assay [9] was 6.22 µM (active). For `CCCCCC(=O)Nc1cccc(-c2nc3ncccc3o2)c1`, the half-maximal activity concentration (AC50) in assay [7] was 22.4 µM (inconclusive). For `Cc1ccc(C)c(S(=O)(=O)NC(C)C(=O)Nc2ccc(-c3nc4ccccc4s3)cc2)c1` (configuration not stated), the half-maximal activity concentration (AC50) in assay [6] was 15.8 µM (inconclusive). Still for that read-out and setting: to `O=C(c1ccco1)N1CCC2(CCCN(Cc3ccncc3)C2)CC1` belongs 15.8 µM (inconclusive).

`Cc1cc(C)nc(NC(=O)/C=C/c2ccc3c(c2)OCO3)c1`: in assay [12], the AC50 was 1.91 µM (active).

As to `CC1(CCl)[N+]([O-])=C2CCCCC2=[N+]1[O-]`, the concentration giving a half-maximal response (EC50) was > 300 µM (not active) in assay [4] and 121 µM (active) in [5]. In the case of `CCN(CC)S(=O)(=O)c1ccc(Cl)c(C(=O)Nc2ccc(Cl)cc2[N+](=O)[O-])c1`, the AC50 in assay [9] was 7.83 µM (active). Consider `CCOC(=O)C1(S(=O)(=O)c2ccc(Cl)cc2)CCN(Cc2ccc(Cl)cc2)CC1`, for which the AC50 in [6] is 31.6 µM (inconclusive). Take `Cc1c(NC(=O)C(Sc2ccccc2)c2ccccc2)cccc1[N+](=O)[O-]` (configuration not stated): in assay [7], the AC50 was 3.16 µM (inconclusive). On to `Cc1c(CCC(=O)O)c(=O)oc2cc3occ(-c4ccc(Cl)cc4)c3cc12`, for which the half-maximal effective concentration (EC50) was 7.96 µM (active) in assay [1], > 150 µM (not active) in assay [2] and > 150 µM (not active) in [3]. As usually defined, the CC50 is the concentration that lowers cell viability or growth by half. For `CCCOc1ccc2c3c(c(=O)oc2c1OCCC)CCCC3`, the half-maximal activity concentration (AC50) in assay [9] was 13.7 µM (active). Besides, in [13], the half-maximal cytotoxic concentration (CC50) was 23.5 µM (active).

Consider `Cc1cccc(-n2c(N)c(-c3nc4ccccc4n3C)c3nc4ccccc4nc32)c1`, for which the concentration for a half-maximal effect (EC50) in [1] was 3.66 µM (active); in [2] it was > 150 µM (not active); in [3], > 150 µM (not active). With `CC(C)[C@H](NC(=O)N1CC(=O)Nc2ccccc21)C(=O)N[C@@H](Cc1ccccc1)C(=O)O`, the EC50 in assay [1], in assay [2] and in [3] was > 150 µM (not active) in each case.

Turning to `O=C1c2ccccc2C(=O)N1CCCCN(C(=O)c1ccc([N+](=O)[O-])cc1)c1ccc(Cl)cc1`, in assay [7], the AC50 is 15.8 µM (inconclusive).

Turning to `c1ccc(CN2CCC3(CCNCC3)CC2)cc1`, the AC50 in assay [8] was 25.1 µM (inconclusive). For `CSCC(C)N1CCC(N2CCC(C(=O)NCc3ccccn3)CC2)CC1` (configuration not stated), the half-maximal effective concentration (EC50) in assay [4] is 161 µM (active); in assay [5], > 300 µM (not active). Regarding `Cc1sc2[nH]c(-c3ccccn3)nc(=O)c2c1-c1ccccc1`, in [3], the EC50 was > 150 µM (not active). Regarding `CCCC(CCC)C(=O)NNc1cc(O)c2c(=O)n(C)c(=O)n(C)c2n1`, the half-maximal activity concentration (AC50) in [8] is 0.178 µM (inconclusive). For the compound `CCc1c2c(nc3cccc(SC)c13)COC2`, the half-maximal activity concentration (AC50) in assay [7] is 39.8 µM (inconclusive).

Take `NS(=O)(=O)c1ccc(NCc2cnc3ccccc3c2)cc1`: the half-maximal activity concentration (AC50) in assay [6] was 1.58 µM (inconclusive). As to `O=S(=O)(Nc1cccnc1Cl)c1ccc2c(c1)OCCO2`, the concentration at half-maximal activity (AC50) in assay [8] was 15.8 µM (inconclusive). For `CC1C(=O)NN=C1C(=O)N/N=C/c1ccco1` (configuration not stated), the EC50 in assay [4] and in [5] was > 300 µM (not active) each time.

Take `COc1cc([N+](=O)[O-])cc(/C=N/NC(=O)C(C)Nc2cccc(C)c2)c1O` (configuration not stated): the EC50 in assay [1] is 10.9 µM (active); in [2], > 150 µM (not active); in [3], > 150 µM (not active).

For the compound `COc1ccc(C(=O)N/N=C(\C)Cn2nc([N+](=O)[O-])cc2C)cc1`, the half-maximal activity concentration (AC50) in assay [6] was 20 µM (inconclusive). With `COc1ccc2c(c1OC)C(=O)O[C@H]2[C@H]1c2cc3c(cc2CCN1C)OCO3` [1R,9S-HYDRASTINE], the AC50 in assay [8] was 1.58 nM (inconclusive) and 15.8 µM (inconclusive).
